Test results: the NIST ThermoML archive (doi:10.1021/je301084m)
± gives the expanded uncertainty stated by the source.

Assay: molar heat capacity at constant pressure; wn = mass fraction of the nth substance listed
Conditions: 101 kPa, Liquid, Small sample (50 mg) DSC

For `O=[N+]([O-])[O-].[Li+]` [lithium nitrate] + O, the “molar heat capacity at constant pressure” value (303.15 K, w1 = 0.3) was 79.48 ± 1.8 J/K/mol, the “molar heat capacity at constant pressure” value (303.15 K, w1 = 0.35) was 78.8 ± 1.8 J/K/mol and the “molar heat capacity at constant pressure” value (303.15 K, w1 = 0.4) was 78.86 ± 1.9 J/K/mol. For the same compound, the “molar heat capacity at constant pressure” value (303.15 K, w1 = 0.45) was 80.9 ± 2 J/K/mol, the “molar heat capacity at constant pressure” value (303.15 K, w1 = 0.5) was 82.01 ± 2.1 J/K/mol and the “molar heat capacity at constant pressure” value (303.15 K, w1 = 0.55) was 83.66 ± 2.2 J/K/mol. The “molar heat capacity at constant pressure” value (313.15 K, w1 = 0.3) was 80.01 ± 1.8 J/K/mol, the “molar heat capacity at constant pressure” value (313.15 K, w1 = 0.35) was 79.55 ± 1.8 J/K/mol and the “molar heat capacity at constant pressure” value (313.15 K, w1 = 0.4) was 79.65 ± 1.9 J/K/mol. The “molar heat capacity at constant pressure” value (313.15 K, w1 = 0.45) was 81.5 ± 2 J/K/mol, the “molar heat capacity at constant pressure” value (313.15 K, w1 = 0.5) was 82.67 ± 2.1 J/K/mol and the “molar heat capacity at constant pressure” value (313.15 K, w1 = 0.55) was 84.48 ± 2.2 J/K/mol. For the same compound, the “molar heat capacity at constant pressure” value (313.15 K, w1 = 0.6) was 86.04 ± 2.3 J/K/mol, the “molar heat capacity at constant pressure” value (323.15 K, w1 = 0.3) was 80.61 ± 1.8 J/K/mol and the “molar heat capacity at constant pressure” value (323.15 K, w1 = 0.35) was 80.5 ± 1.8 J/K/mol. For the same compound, the “molar heat capacity at constant pressure” value (323.15 K, w1 = 0.4) was 80.42 ± 1.9 J/K/mol, the “molar heat capacity at constant pressure” value (323.15 K, w1 = 0.45) was 81.79 ± 2 J/K/mol and the “molar heat capacity at constant pressure” value (323.15 K, w1 = 0.5) was 83.53 ± 2.1 J/K/mol. The “molar heat capacity at constant pressure” value (323.15 K, w1 = 0.55) was 84.72 ± 2.2 J/K/mol, the “molar heat capacity at constant pressure” value (323.15 K, w1 = 0.6) was 86.29 ± 2.3 J/K/mol and the “molar heat capacity at constant pressure” value (333.15 K, w1 = 0.3) was 81.26 ± 1.8 J/K/mol. The “molar heat capacity at constant pressure” value (333.15 K, w1 = 0.35) was 81.18 ± 1.8 J/K/mol, the “molar heat capacity at constant pressure” value (333.15 K, w1 = 0.4) was 81.37 ± 1.9 J/K/mol and the “molar heat capacity at constant pressure” value (333.15 K, w1 = 0.45) was 82.23 ± 2 J/K/mol. For the same compound, the “molar heat capacity at constant pressure” value (333.15 K, w1 = 0.5) was 83.73 ± 2.1 J/K/mol, the “molar heat capacity at constant pressure” value (333.15 K, w1 = 0.55) was 84.66 ± 2.2 J/K/mol and the “molar heat capacity at constant pressure” value (333.15 K, w1 = 0.6) was 86.88 ± 2.3 J/K/mol. For the same compound, the “molar heat capacity at constant pressure” value (343.15 K, w1 = 0.3) was 81.58 ± 1.8 J/K/mol, the “molar heat capacity at constant pressure” value (343.15 K, w1 = 0.35) was 81.76 ± 1.9 J/K/mol and the “molar heat capacity at constant pressure” value (343.15 K, w1 = 0.4) was 81.83 ± 1.9 J/K/mol. For the same compound, the “molar heat capacity at constant pressure” value (343.15 K, w1 = 0.45) was 82.71 ± 2 J/K/mol, the “molar heat capacity at constant pressure” value (343.15 K, w1 = 0.5) was 84.07 ± 2.1 J/K/mol and the “molar heat capacity at constant pressure” value (343.15 K, w1 = 0.55) was 85.17 ± 2.2 J/K/mol. The “molar heat capacity at constant pressure” value (343.15 K, w1 = 0.6) was 87.07 ± 2.3 J/K/mol, the “molar heat capacity at constant pressure” value (353.15 K, w1 = 0.3) was 82.28 ± 1.8 J/K/mol and the “molar heat capacity at constant pressure” value (353.15 K, w1 = 0.35) was 82.27 ± 1.9 J/K/mol. The “molar heat capacity at constant pressure” value (353.15 K, w1 = 0.4) was 82.62 ± 1.9 J/K/mol, the “molar heat capacity at constant pressure” value (353.15 K, w1 = 0.45) was 83.71 ± 2 J/K/mol and the “molar heat capacity at constant pressure” value (353.15 K, w1 = 0.5) was 84.56 ± 2.1 J/K/mol. The “molar heat capacity at constant pressure” value (353.15 K, w1 = 0.55) was 86.18 ± 2.2 J/K/mol, the “molar heat capacity at constant pressure” value (353.15 K, w1 = 0.6) was 87.75 ± 2.3 J/K/mol and the “molar heat capacity at constant pressure” value (363.15 K, w1 = 0.3) was 82.69 ± 1.8 J/K/mol. For the same compound, the “molar heat capacity at constant pressure” value (363.15 K, w1 = 0.35) was 82.93 ± 1.9 J/K/mol, the “molar heat capacity at constant pressure” value (363.15 K, w1 = 0.4) was 83.28 ± 1.9 J/K/mol and the “molar heat capacity at constant pressure” value (363.15 K, w1 = 0.45) was 84.98 ± 2 J/K/mol. The “molar heat capacity at constant pressure” value (363.15 K, w1 = 0.5) was 85.84 ± 2.1 J/K/mol, the “molar heat capacity at constant pressure” value (363.15 K, w1 = 0.55) was 87.3 ± 2.2 J/K/mol and the “molar heat capacity at constant pressure” value (363.15 K, w1 = 0.6) was 88.43 ± 2.3 J/K/mol. For the same compound, the “molar heat capacity at constant pressure” value (373.15 K, w1 = 0.4) was 84.15 ± 1.9 J/K/mol, the “molar heat capacity at constant pressure” value (373.15 K, w1 = 0.45) was 86.11 ± 2 J/K/mol and the “molar heat capacity at constant pressure” value (373.15 K, w1 = 0.5) was 86.64 ± 2.1 J/K/mol. For the same compound, the “molar heat capacity at constant pressure” value (373.15 K, w1 = 0.55) was 88.09 ± 2.2 J/K/mol and the “molar heat capacity at constant pressure” value (373.15 K, w1 = 0.6) was 89.63 ± 2.3 J/K/mol.
